Measurements from paper PMC9739180, “Discovery of a Flavonoid FM04 as a Potent Inhibitor to Reverse P-Glycoprotein-Mediated Drug Resistance in Xenografts and Improve Oral Bioavailability of Paclitaxel” (International Journal of Molecular Sciences, 2022).
Read-outs that look alike come from different tables or passages of the source.

Columns and labels:
[1] = design: method as in PMID 23090875; conditions: oral PTX 10 mg/kg, cited from earlier work
[2] = target: T1, BCRP (Homo sapiens, UniProt Q9UNQ0); assay: BCRP-modulating activity in HEK293/R2 cells (MTS); format: cell-based; conditions: 1 μM, HEK293/R2
T1 construct: expressed in transfected cells; host or cells: HEK293/R2
T1 sequence (Q9UNQ0 1-655): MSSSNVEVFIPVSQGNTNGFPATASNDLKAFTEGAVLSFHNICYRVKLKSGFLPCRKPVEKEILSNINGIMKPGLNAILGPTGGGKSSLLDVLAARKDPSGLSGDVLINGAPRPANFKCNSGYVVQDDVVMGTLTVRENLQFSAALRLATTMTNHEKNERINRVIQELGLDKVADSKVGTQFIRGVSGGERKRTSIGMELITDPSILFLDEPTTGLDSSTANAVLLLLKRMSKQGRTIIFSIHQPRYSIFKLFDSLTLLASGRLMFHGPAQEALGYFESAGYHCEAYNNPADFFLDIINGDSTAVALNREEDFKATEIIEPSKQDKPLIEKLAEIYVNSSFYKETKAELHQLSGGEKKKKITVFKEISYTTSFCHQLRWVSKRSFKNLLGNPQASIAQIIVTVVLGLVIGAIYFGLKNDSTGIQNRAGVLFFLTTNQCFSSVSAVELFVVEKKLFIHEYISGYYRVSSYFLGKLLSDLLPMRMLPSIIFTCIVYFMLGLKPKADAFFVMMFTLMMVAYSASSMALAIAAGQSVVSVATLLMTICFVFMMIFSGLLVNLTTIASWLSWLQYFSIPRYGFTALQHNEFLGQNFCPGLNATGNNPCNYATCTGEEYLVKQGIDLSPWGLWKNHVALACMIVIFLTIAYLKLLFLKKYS
Description: The final volume in each well of the 96-well plate was 200 μL. The plate was then incubated for 5 days at 37 °C. The cell viability was determined using an MTS assay as reported previously.

[3] = In vivo monitoring of FD18 and its metabolites in plasma after I.V. FD18; design: species or system SD rats; conditions: after FD18 5 mg/kg I.V.
Description: Figure 3 Proposed metabolism pathway of FD18 and its metabolites formed in vivo. (A) metabolism study of FD18 was conducted on human liver microsomes (HLM) and rat liver microsomes (RLM) in vitro. Chemical structure of the 3 metabolites was predicted by LC/QTOF-MS/MS and confirmed by the synthetic compounds (Figure 2E–J). The pathways for biotransformation of FD18 into FM04 was proposed. (B) plasma concentration profile of FD18 and the in vivo formation of metabolites M1, M2 and M3. After I.V. injection of FD18 (5 mg/kg) into […], plasma was collected at 10, 30, 60, 120, 240, 420 and 600 min, respectively. The concentration of FD18 at each time point was determined by UPLC-MS/MS. Its plasma concentration was further quantified with peak area ratio of FD18 against D7-18. […] In vivo formation of metabolites M1, M2 and M3 were monitored and quantified by UPLC-MS/MS with corresponding calibration curve of 14a, FM04 and FM327. Pharmacokinetic parameter AUC was calculated by the pharmacokinetic software-Summit® PK solutions 2.0 (Summit Research Service, Ashland, Wilmington, DE, USA).
FD18 stock solution was freshly prepared in 33% Cremophor EL, 33% ethanol and 33% saline at a concentration of 9.5 mg/mL. FD18 stock solution was then diluted with saline to form a 4 mg/mL working solution for animal injection. SD rats were intravenously (I.V.) administered with FD18 at 5 mg/kg (n = 3). Blood samples (approx. 300 μL) were taken via jugular vein at 10, 30, 60, 120, 240 and 420 min post-administration. Blood samples were centrifuged at 16,100× g for 10 min to obtain plasma. Plasma samples (50 µL) were spiked with 15 μL of internal standard (IS) (D7-NBn, 10 μg/mL). Two hundred microliter of methanol was added for protein precipitation. Samples were centrifuged at 16,100× g for 10 min prior to filtering by 0.22 μm syringe filter for UPLC-MSMS analysis.
The UPLC-MS/MS system consists of an Agilent 1260 infinity UPLC interfaced with a triple quadrupole mass spectrometer (Agilent 6460) equipped with an electrospray ionization source in positive mode. Zorbax Eclipse XDB-C8 (4.6 × 150 mm, 5 µM) was used for separation. The mobile phase for chromatographic separation consisted of methanol + 0.1% formic acid (solvent B) and Milli-Q water + 0.1% formic acid (solvent A) with gradient elution of 30% solvent B to 100% solvent B in 5 min. The elution condition was allowed for equilibrium from the 7th min onward. The analysis time for each injection was 13 min. The flow rate was 0.4 mL/min. The synthetic compound D7-NBn, the deuterated benzyl form of FD18, was used as the internal standard (IS) for the quantification of the three metabolites. Multiple reaction monitoring (MRM) was set to monitor the transitions of D7-NBn [M+H]^+, FD18 [M+H]^+, M1 [M+H]^+, M2 [M+H]^+ and M3 [M+H]^+ at 731.01 > 98.1 m/z, 724.01 > 91.1 m/z, 634.01 > 114 m/z, 416.01 > 91.1 m/z and 327.01 > 239 m/z, respectively. The coefficient of determination (R^2) for 14a, FM04 and FM327 were above 0.99. The dynamic range for the metabolites in the current setting is 78 ng/mL to 2.44 ng/mL.

[4] = target: T2, CYP3A4 (Homo sapiens, UniProt P08684); assay: PTX metabolism in human liver microsomes: p3-OHP formation; format: in vitro ADME; conditions: HLM
T2 construct: tissue Research Institute for Liver Diseases (Shanghai); host or cells: 50-donor pooled human liver microsomes
T2 sequence (P08684 whole entry): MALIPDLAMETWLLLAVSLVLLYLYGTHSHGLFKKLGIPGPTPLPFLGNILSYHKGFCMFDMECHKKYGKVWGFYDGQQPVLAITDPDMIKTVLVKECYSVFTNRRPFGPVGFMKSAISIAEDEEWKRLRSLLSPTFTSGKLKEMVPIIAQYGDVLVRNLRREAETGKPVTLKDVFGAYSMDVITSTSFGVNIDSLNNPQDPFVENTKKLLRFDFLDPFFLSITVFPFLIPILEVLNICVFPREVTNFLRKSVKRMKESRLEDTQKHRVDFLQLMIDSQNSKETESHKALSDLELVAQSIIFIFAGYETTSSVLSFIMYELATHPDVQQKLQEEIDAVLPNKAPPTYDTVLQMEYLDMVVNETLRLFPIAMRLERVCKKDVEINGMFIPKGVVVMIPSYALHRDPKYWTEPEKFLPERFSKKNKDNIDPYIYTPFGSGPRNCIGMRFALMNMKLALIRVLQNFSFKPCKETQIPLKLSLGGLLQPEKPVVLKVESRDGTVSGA
Description: N = 2–3 independent experiments. […] N = 2–3 independent experiments.
Source parameters were as follows, gas temp (350 °C), gas flow (8 L/min), nebulizer (35 psi) and capillary (4000 V). […] Milli-Q with 0.1% formic acid was used as the aqueous phase.

SMILES	fold increase of oral plasma AUC of PTX relative to wild type mice ([1]; Cyp3a KO (Cyp3a−/−) mice) [fold]	fold increase of oral plasma AUC of PTX relative to wild type mice ([1]; P-gp KO (Mdr1a/b−/−) mice) [fold]	fold increase of oral plasma AUC of PTX relative to wild type mice ([1]; combined P-gp and Cyp3a KO mice) [fold]	reversal of BCRP-mediated topotecan resistance [2]	AUC(0-t) ([3]; Sprague-Dawley, rat, iv) [ng·h/mL]	Cmax ([3]; Sprague-Dawley, rat, iv) [ng/mL]	Tmax ([3]; Sprague-Dawley, rat, iv) [h]	Normalized AUC (systemic exposure relative to FD18) ([3]; listed as M2) [%]	reduction in p3-OHP ([4]; FM04 10 μM) [%]	reduction in p3-OHP ([4]; FM04 20 μM) [%]
CC(=O)O[C@H]1C(=O)[C@@]2(C)[C@H]([C@H](OC(=O)c3ccccc3)[C@]3(O)C[C@H](OC(=O)[C@H](O)[C@@H](NC(=O)c4ccccc4)c4ccccc4)C(C)=C1C3(C)C)[C@]1(OC(C)=O)CO[C@@H]1C[C@@H]2O [PTX, paclitaxel]	1.5	12.4	27.6	–	–	–	–	–	–	–
O=c1cc(-c2ccc(OCCOCCNCc3ccccc3)cc2)oc2ccccc12 [FM04, 2-(4-(2-(2-(benzylamino)ethoxy)ethoxy)phenyl)-4H-chromen-4-one]	–	–	–	did not reverse BCRP-mediated topotecan resistance	44.5	11	1	7	42	51
